Data taken from patent publication US11926860B2, “Method of screening inhibitor of caspase activity by lipopolysaccharide” (KOREA INSTITUTE OF SCIENCE AND TECHNOLOGY, priority 2021, dated 2024).

How the values were obtained:
binding of CARD and LPS = molecular target: T1, binding of CARD and LPS (Homo sapiens, UniProt P49662, M1C); experiment: FP competition assay of hit compounds; details: compound 50 μM to 0.022 μM, 6.4 μM LPS-Ra, 50 nM tracer, buffer C, 37° C. 1 hour
T1 construct: three types of cysteine-inserted CARD(1-80) variants (Cys-His-CARD, His-Cys-CARD (M1C-CARD), and His-CARD-Cys); His6 (N); made in house; host or cells: E. coli CLEARCOLI BL21(DE3)
T1 sequence (P49662 1-80 M1C): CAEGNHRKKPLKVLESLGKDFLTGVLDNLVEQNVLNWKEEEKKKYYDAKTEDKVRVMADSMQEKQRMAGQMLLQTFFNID
Description: In detail, the FP competition assay was performed by mixing 50 nM of tracer, 6.4 μM of LPS-Ra, and 3-fold serially diluted hit compound (50 μM to 0.022862 μM) in buffer C. The mixture was incubated at 37° C. for 1 hour before measurement. FP values were expressed as a function of compound concentrations, and IC50 values were obtained from a sigmoidal curve fit, as analyzed in GRAPHPAD PRISM 8.

[1] = FP binding assay of ALEXA FLUOR 488-CARD and LPS; details: for effect of additive on binding of CARD and LPS: buffer C with 0.1 mg/mL BSA, 0.01% NP-40, or 1 mM MC (MgCl2+CaCl2), 37° C. 1 hour
Description: Fluorescence polarization (FP) was measured with an APPLISKAN microplate reader (ThermoFisher) using 485 nm excitation and 535 nm emission filters. The FP value was calculated according to the following equation: FP (mP)=1000×(Is−G×Ip)/(Is+G×Ip). In the equation, Is represents a parallel (equivalent) emission intensity, Ip represents a perpendicular emission intensity, and G represents a lattice coefficient 0.877.
FP binding assay was performed by adding 200 μL of a reaction mixture to each well of a black 96-well plate (SPL Life Sciences). The reaction mixture includes 50 nM ALEXA FLUOR 488-CARD (tracer) with increasing concentrations of LPS-Ra (in the range of 0 μM to 12.8 μM, a molecular weight of LPS-Ra is assumed to be 3,835 g/mole, Sigma-Aldrich) in a buffer C or an indicated buffer. The reaction mixture was incubated at 37° C. for 30 minutes to 4 hours before reaction. FP values are expressed as a function of LPS-Ra concentration. FP binding curves of His-Cys-CARD (ALEXA FLUOR 488-CARD) or ALEXA FLUOR 488 alone (dye) with respect to the concentrations of LPS are shown in FIG. 2E.
Apparent equilibrium dissociation constants (Kd^app) were calculated from the nonlinear regression curve fit, as analyzed in GRAPHPAD PRISM 8 from the FP binding curves.
An FP binding curve from FP values measured with buffer C (50 mM Tris-HCl pH 7.0, 150 mM NaCl) supplemented with additives such as 0.1 mg/mL BSA, 0.01% NP-40, or 1 mM MC (MgCl2+CaCl2) is shown in FIG. 3A. An FP binding curve from FP values measured by incubating ALEXA FLOUR 488-CARD serially diluted with buffer C for 0.5 hours to 4 hours is shown in FIG. 3B (grey area: range of 20 nM to 50 nM). An FP binding curve from FP values measured by incubating different concentrations of LPS-Ra in buffer C for 0.5 hours to 4 hours is shown in FIG. 3D. An FP binding curve from FP values measured with buffer C supplemented with different concentrations of DMSO is shown in FIG. 3E. In addition, LPS-Ra concentration-dependent Z′ factor was evaluated in buffer C supplemented with 0% to 10% DMSO. […]

[2] = Surface plasmon resonance (SPR) of Casp-4 constructs on immobilized LPS; type: binding, E. coli; details: for Kd: 25° C., NH-LPS O55:B5 on CM5 chip, HBS-E, read-out: dissociation constant
Description: In addition, the binding affinity between Casp-4 and LPS was determined by a surface plasmon resonance (SPR) experiment. The SPR experiment was performed at 25° C. using a BIACORE T200 (Cytiva). A filtered and degassed running buffer (HBS-E) was prepared prior to use. Amine-derived LPS O55:B5 (NH-LPS, Sigma-Aldrich) was prepared by a method described in P. T. Wong et al., J Mater Chem B, 2015, 3, 1149-1156, herein incorporated by reference. NH-LPS was immobilized on a CM5 sensor chip (Cytiva) using an amine coupling method (480 RU), and blocked with 1 M ethanolamine (pH 8.5). Purified proteins of the indicated concentration were injected, and the resulting sensorgrams were analyzed using a BIACORE T200 Evaluation software.

[3] = Tryptophan fluorescence spectrometry of Casp-4 constructs binding to LPS; details: for Kd: 1 μM protein, LPS-Ra 0 μM to 50 μM, HBS-E buffer, 37° C. 30 minutes, fluorescence intensity at 334 nm, read-out: apparent equilibrium dissociation constant (Kd^app)
Description: Apparent dissociation constants were measured by tryptophan fluorescence spectrometry. […] Apparent dissociation constant values were calculated by analyzing the fluorescence emission spectra.
Fluorescence spectra were obtained with a FluoroMate FS-2 fluorescence spectrophotometer (Sinco) equipped with a quartz cuvette with a 5 mm path length. 1 μM of the recombinant protein was mixed with increasing concentrations of LPS-Ra (in the range of 0 μM to 50 μM) in an HBS-E buffer (10 mM HEPES pH 7.5, 150 mM NaCl, 3 mM EDTA), and incubated at 37° C. for 30 minutes. The sample was excited at 280 nm, and emission spectra at 300 nm to 500 nm were recorded with an excitation/emission slit width of 2.5/5 nm, respectively. The fluorescence intensity of the sample was corrected by subtracting the background intensity of LPS alone. A difference in the fluorescence intensity at 334 nm was expressed as a function of LPS-Ra concentration, and the apparent equilibrium dissociation constant (Kd^app) was calculated from the nonlinear regression curve fit, as analyzed in GRAPHPAD PRISM 8. Graphs showing the emission spectra of the tryptophan residue in full-length C258A-Casp-4, CARD, and ΔCARD-C258A-Casp-4 in LPS-Ra (0 μM to 50 μM) are shown in FIG. 1B.

CN1CCN(c2ccc(C(=O)Nc3n[nH]c4ccc(Cc5cc(F)cc(F)c5)cc34)c(NC3CCOCC3)c2)CC1 [C-19, Entrectinib]
IC50 (FP signal decrease, concentration-dependent) (binding of CARD and LPS): μM level

O=C1c2c(O)ccc(O)c2C(=O)c2c(NCCNCCO)ccc(NCCNCCO)c21 [C-6, Mitoxantrone]
IC50 (FP signal decrease, concentration-dependent) (binding of CARD and LPS): μM level

bovine serum albumin [BSA]
effect of additive on binding of CARD and LPS [1]: inhibited

Cn1cc(C2=C(c3cn(C4CCN(Cc5ccccn5)CC4)c4ccccc34)C(=O)NC2=O)c2ccccc21 [C-13, Enzastaurin]
IC50 (FP signal decrease, concentration-dependent) (binding of CARD and LPS): μM level

NP-40
effect of additive on binding of CARD and LPS [1]: inhibited

CCOc1ccc2nc3cc(N)ccc3c(N)c2c1 [C-8, Ethacridine lactate]
IC50 (FP signal decrease, concentration-dependent) (binding of CARD and LPS): μM level

CN1CCN(c2nc(C3=C(c4c[nH]c5ccccc45)C(=O)NC3=O)c3ccccc3n2)CC1 [C-15, Sotrastaurin]
IC50 (FP signal decrease, concentration-dependent) (binding of CARD and LPS): μM level

CC1=NN(c2ccc(C)c(C)c2)C(=O)/C1=N\Nc1cccc(-c2cccc(C(=O)O)c2)c1O [C-11, Eltrombopag Olamine]
IC50 (FP signal decrease, concentration-dependent) (binding of CARD and LPS): μM level

CN(C)c1ccc(C(=C2C=CC(=[N+](C)C)C=C2)c2ccc(N(C)C)cc2)cc1 [C-5, Crystal violet]
IC50 (FP signal decrease, concentration-dependent) (binding of CARD and LPS): μM level

Cc1cc(Nc2ncc(Cl)c(Nc3ccccc3S(=O)(=O)C(C)C)n2)c(OC(C)C)cc1C1CCNCC1 [C-16, Ceritinib]
IC50 (FP signal decrease, concentration-dependent) (binding of CARD and LPS): μM level

B1: CARD: caspase activation and recruitment domain of Casp-4, residues 1-80, His6 tag at the N-terminus (protein)
chain: MAEGNHRKKPLKVLESLGKDFLTGVLDNLVEQNVLNWKEEEKKKYYDAKTEDKVRVMADSMQEKQRMAGQMLLQTFFNID
modifications: N-terminal His6 tag; Caspase-4 CARD polypeptide
Kd [2]: 2.1 µM
Kd [3]: 6.5 ± 0.8 µM

B2: ALEXA FLOUR 488-CARD: ALEXA FLUOR 488-labeled His-Cys-CARD (M1C-CARD), tracer for FP assays (conjugate, UniProt P49662 1-80, looked up, fragment M1C)
chain: CAEGNHRKKPLKVLESLGKDFLTGVLDNLVEQNVLNWKEEEKKKYYDAKTEDKVRVMADSMQEKQRMAGQMLLQTFFNID
modifications: CARD Alexa Fluor 488 label; His tag
notes: ALEXA FLUOR 488-labeled His-Cys-CARD (M1C-CARD), tracer for FP assays
Kd ([1]; 50 nM ALEXA FLOUR 488-CARD, LPS-Ra 0 μM to 12.8 μM, buffer C, 37° C., read-out: Kd^app): 2.2 ± 0.2 µM

B3: C258A-Casp-4: Catalytically inactive full-length Casp-4 (1-377, C258A modification) (protein, UniProt P49662 1-377, looked up, variant C258A)
chain: MAEGNHRKKPLKVLESLGKDFLTGVLDNLVEQNVLNWKEEEKKKYYDAKTEDKVRVMADSMQEKQRMAGQMLLQTFFNIDQISPNKKAHPNMEAGPPESGESTDALKLCPHEEFLRLCKERAEEIYPIKERNNRTRLALIICNTEFDHLPPRNGADFDITGMKELLEGLDYSVDVEENLTARDMESALRAFATRPEHKSSDSTFLVLMSHGILEGICGTVHDEKKPDVLLYDTIFQIFNNRNCLSLKDKPKVIIVQAARGANRGELWVRDSPASLEVASSQSSENLEEDAVYKTHVEKDFIAFCSSTPHNVSWRDSTMGSIFITQLITCFQKYSWCCHLEEVFRKVQQSFETPRAKAQMPTIERLSMTRYFYLFPGN
modifications: full-length
Kd [2]: 2.4 µM
Kd [3]: 5.3 ± 0.5 µM

B4: ΔCARD-C258A-Casp-4: CARD truncated Casp-4 (81-377, C258A modification) (protein, UniProt P49662 81-377, looked up, fragment C258A)
chain: QISPNKKAHPNMEAGPPESGESTDALKLCPHEEFLRLCKERAEEIYPIKERNNRTRLALIICNTEFDHLPPRNGADFDITGMKELLEGLDYSVDVEENLTARDMESALRAFATRPEHKSSDSTFLVLMSHGILEGICGTVHDEKKPDVLLYDTIFQIFNNRNCLSLKDKPKVIIVQAARGANRGELWVRDSPASLEVASSQSSENLEEDAVYKTHVEKDFIAFCSSTPHNVSWRDSTMGSIFITQLITCFQKYSWCCHLEEVFRKVQQSFETPRAKAQMPTIERLSMTRYFYLFPGN
binding to LPS ([2]; FIG. 1C): not identified
binding to LPS ([3]; tryptophan fluorescence, FIG. 1B): not identified
